# Experimental data as given in US20250235456A1, “METHODS OF USE FOR AZA-QUINAZOLINE COMPOUNDS” (Iambic Therapeutics, Inc., priority 2024, published 2025).
# Key:
# Assay type in all cases: biochemical
# [1] = molecular target: CDK2/Cyclin E1 full length (Homo sapiens (Human), UniProt P24941); assay: CDK2/Cyclin E1 Full length ADP-Glo Kinase Assay; conditions: read-out: CDK2/CyclinE1 IC50
# Description: CDK2/Cyclin E1 Full length ADP-Glo Kinase Assay
# The purpose of CDK2/Cyclin El assay is to evaluate the inhibition (% inhibition and IC50 values) of small molecule inhibitors by using a Luminescent based ADP-Glo assay. CDK2/Cyclin El full length catalyzes the production of ADP from ATP. ADP-Glo assay monitors ADP producing biochemical reactions. ADP-Glo is performed in 2 steps upon completion of kinase reaction: a combined termination of kinase reaction and depletion of remaining ATP in the first step, and conversion of generated ADP to ATP and the newly produced ATP to light output using luciferase/luciferin reaction in the second step. The luminescent signal generated is proportional to the ADP concentration produced and is correlated with the kinase activity. CDK2/Cyclin E1 was purchased from Eurofins (Cat 14-475M). […] The assay was initiated with the addition of ATP-containing substrate solution, following a 30-minute pre-incubation of enzyme and inhibitor at room temperature in the reaction mixture. The reaction was stopped after 90 minutes at room temperature by the addition of 10 μL of ADP-GLO Reagent. After a 90 minute incubation, 20 uL of Kinase Detection Reagent was added. Samples were incubated for 40 minutes, after which plate well luminescence was measured on a Envision microplate reader. The IC50 determinations were made from a plot of the fractional velocity as a function of inhibitor concentration fit to the 4 parameters IC50 equation.
# CDK1/Cyclin B1 = CDK1/Cyclin B1 (Homo sapiens (Human), UniProt P06493); assay: CDK1/Cyclin B1 ADP-Glo Kinase Assay
# How it was run: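 Purchased CDK1/Cyclin B1 was pre-incubated 30 min with inhibitor at room temperature, then reacted 90 min at room temperature after adding ATP-containing substrate. ADP formed was read by two-step ADP-Glo luminescence. IC50 came from a 4-parameter fit of fractional velocity versus inhibitor concentration.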
# CDK4/Cyclin D1 = CDK4/Cyclin D1 (Homo sapiens (Human), UniProt P11802); assay: CDK4/Cyclin D1 CHEF Assay; conditions: AQT; read-out: CDK4/CyclinD1 AQT IC50
# Text: CDK4/Cyclin D1 CHEF Assay
# The purpose of CDK4/Cyclin Dl assay is to evaluate the inhibition (% inhibition and IC50 values) of small molecule inhibitors by using a Chelation-Enhance Fluorescence (CHEF) assay. In a CHEF assay, phosphorylation of a peptide substrate results in proportional increase in fluorescence. CHEF kinase assay use peptide substrates containing a synthetic alpha-amino acid with a side chain bearing an 8-hydroxyquinoline derivative (sulfonamido-oxide, Sox). Upon phosphorylation of a nearby serine, threonine or tyrosine and in the presence of Mg(II), the spectral properties of the Sox residue are altered, emitting 485 nm wavelength light when excited with a 360 nm wavelength light source. CDK4/Cyclin D1 catalyzes the phosphoryl transfer to the SOX-labeled substrate peptide AQT0258 from Assayquant Technologies. […] The reaction was initiated with the addition of substrate solution, following a 30-minute pre-incubation of enzyme and inhibitor at 22° C. in the reaction mix. Reactions were allowed to proceed for 3 hrs at 22° C., followed by fluorescence read of the reaction. The IC50 determinations were made from a plot of the fractional velocity as a function of inhibitor concentration fit to the 4 parameters IC50 equation.
# CDK6/Cyclin D3 = CDK6/Cyclin D3 (Homo sapiens (Human), UniProt Q00534); assay: CDK6/Cyclin D3 ADP-Glo Kinase Assay; conditions: read-out: CDK6/CyclinD3 IC50
# How it was run: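 Commercial CDK6/Cyclin D3 pre-incubated with inhibitor 30 min at room temperature, then reaction started with ATP/substrate and run 90 min at room temperature. ADP formed measured by ADP-Glo luminescence; IC50 from fractional velocity vs inhibitor concentration fit to a 4-parameter equation.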
# Chain of CDK4/Cyclin D1 (P11802 whole entry, species assumed): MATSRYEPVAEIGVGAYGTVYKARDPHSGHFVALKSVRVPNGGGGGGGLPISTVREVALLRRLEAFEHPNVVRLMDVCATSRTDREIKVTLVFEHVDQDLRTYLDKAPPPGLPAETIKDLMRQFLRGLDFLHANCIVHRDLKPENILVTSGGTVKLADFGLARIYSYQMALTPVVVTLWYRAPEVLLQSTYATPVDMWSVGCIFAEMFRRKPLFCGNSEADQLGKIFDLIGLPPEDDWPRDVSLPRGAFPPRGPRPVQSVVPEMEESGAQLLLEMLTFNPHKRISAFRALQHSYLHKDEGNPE
# Chain of CDK4/Cyclin D1 (P24385 whole entry partner, species assumed): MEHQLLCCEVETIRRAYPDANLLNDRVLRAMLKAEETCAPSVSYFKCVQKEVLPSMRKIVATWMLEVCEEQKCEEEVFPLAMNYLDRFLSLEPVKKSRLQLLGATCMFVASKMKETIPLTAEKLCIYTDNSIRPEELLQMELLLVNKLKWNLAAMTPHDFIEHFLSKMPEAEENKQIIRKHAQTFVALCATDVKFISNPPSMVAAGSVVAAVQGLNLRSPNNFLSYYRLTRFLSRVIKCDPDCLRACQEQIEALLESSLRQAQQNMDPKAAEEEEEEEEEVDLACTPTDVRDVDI
# Chain of CDK1/Cyclin B1 (P06493 whole entry): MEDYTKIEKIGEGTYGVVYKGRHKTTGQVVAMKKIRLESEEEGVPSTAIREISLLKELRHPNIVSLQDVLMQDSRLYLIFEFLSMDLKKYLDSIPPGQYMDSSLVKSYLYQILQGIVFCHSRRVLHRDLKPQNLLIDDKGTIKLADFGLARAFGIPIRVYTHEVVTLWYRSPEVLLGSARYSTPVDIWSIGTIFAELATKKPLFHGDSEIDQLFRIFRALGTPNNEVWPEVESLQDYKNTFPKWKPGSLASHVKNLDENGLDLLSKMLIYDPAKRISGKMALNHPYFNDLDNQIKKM
# Chain of CDK1/Cyclin B1 (P14635 whole entry partner): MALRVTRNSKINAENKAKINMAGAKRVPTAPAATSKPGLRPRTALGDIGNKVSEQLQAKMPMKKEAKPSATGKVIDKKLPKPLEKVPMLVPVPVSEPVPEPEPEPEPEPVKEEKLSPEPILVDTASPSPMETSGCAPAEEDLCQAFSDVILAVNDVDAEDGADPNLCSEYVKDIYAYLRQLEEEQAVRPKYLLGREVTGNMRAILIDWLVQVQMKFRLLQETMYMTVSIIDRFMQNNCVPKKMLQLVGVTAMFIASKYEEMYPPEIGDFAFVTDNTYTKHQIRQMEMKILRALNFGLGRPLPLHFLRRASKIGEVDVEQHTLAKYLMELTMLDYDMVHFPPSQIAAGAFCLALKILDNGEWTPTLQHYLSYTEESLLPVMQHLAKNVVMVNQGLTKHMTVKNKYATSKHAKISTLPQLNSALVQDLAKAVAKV
# Chain of CDK6/Cyclin D3 (Q00534 whole entry): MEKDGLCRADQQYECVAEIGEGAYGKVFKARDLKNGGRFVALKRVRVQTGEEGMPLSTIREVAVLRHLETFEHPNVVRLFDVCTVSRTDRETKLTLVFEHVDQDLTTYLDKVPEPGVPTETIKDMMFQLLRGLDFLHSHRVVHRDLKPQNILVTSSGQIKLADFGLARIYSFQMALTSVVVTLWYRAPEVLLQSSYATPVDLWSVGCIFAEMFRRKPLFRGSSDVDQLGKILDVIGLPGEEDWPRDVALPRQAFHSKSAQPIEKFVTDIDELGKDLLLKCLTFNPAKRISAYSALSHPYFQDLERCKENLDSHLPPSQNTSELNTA
# Chain of CDK6/Cyclin D3 (P30281 whole entry partner): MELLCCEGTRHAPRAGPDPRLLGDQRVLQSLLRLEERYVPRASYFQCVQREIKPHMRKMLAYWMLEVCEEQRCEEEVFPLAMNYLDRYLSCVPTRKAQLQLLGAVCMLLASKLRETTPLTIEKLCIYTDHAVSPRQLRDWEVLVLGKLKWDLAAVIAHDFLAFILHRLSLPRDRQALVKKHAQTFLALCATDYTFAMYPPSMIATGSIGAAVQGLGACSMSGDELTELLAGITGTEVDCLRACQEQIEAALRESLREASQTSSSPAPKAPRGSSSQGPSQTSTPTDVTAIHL
IC50 [1],IC50 (CDK1/Cyclin B1),IC50 (CDK4/Cyclin D1),IC50 (CDK6/Cyclin D3),Compound
200 to 500 nM,> 2000 nM,200 to 500 nM,–,"Cc1cc2cnc(Nc3cnn(C4CC5(C4)CN(C)C5)c3)nc2c(N2CC3(C2)CN(S(C)(=O)=O)C3)n1 [Compound 26, 6-methyl-N-(1-(2-methyl-2-azaspiro[3.3]heptan-6-yl)-1H-pyrazol-4-yl)-8-(6-(methylsulfonyl)-2,6-diazaspiro[3.3]heptan-2-yl) pyrido[3,4-d]pyrimidin-2-amine]"
200 to 500 nM,–,< 200 nM,< 200 nM,"Cc1cc2cnc(Nc3cnn(C4CC5(C4)CN(C)C5)c3)nc2c(N2CCC3(C2)CC3(F)F)n1 (stereo not shown) [Compound 33, 8-(1,1-difluoro-5-azaspiro[2.4]heptan-5-yl)-6-methyl-N-(1-(2-methyl-2-azaspiro[3.3]heptan-6-yl)-1H-pyrazol-4-yl)pyrido[3,4-d]pyrimidin-2-amine]"
200 to 500 nM,> 2000 nM,< 200 nM,< 200 nM,"Cc1cc2cnc(Nc3ccc(N4CC5(CN(C)C5)C4)cc3)nc2c(N2CCC3(CCOCC3)C2)n1 [Compound 35, 6-methyl-N-(4-(6-methyl-2,6-diazaspiro[3.3]heptan-2-yl)phenyl)-8-(8-oxa-2-azaspiro[4.5]decan-2-yl)pyrido[3,4-d]pyrimidin-2-amine]"
< 200 nM,> 2000 nM,< 200 nM,500 to 2000 nM,"Cc1cc2cnc(NC3CCN(S(C)(=O)=O)CC3)nc2c(N2CC3(C2)CN(C2CC2)C3)n1 [Compound 42, 8-(6-cyclopropyl-2,6-diazaspiro[3.3]heptan-2-yl)-6-methyl-N-(1-(methylsulfonyl)piperidin-4-yl)pyrido[3,4-d]pyrimidin-2-amine]"
200 to 500 nM,> 2000 nM,–,> 2000 nM,"Cc1cc2cnc(NC3CCN(S(=O)(=O)C4(C)CC4)CC3)nc2c(C2CC(C)(O)C2)n1 (stereo not shown) [Compound 63, 1-methyl-3-(6-methyl-2-((1-((1-methylcyclopropyl)sulfonyl)piperidin-4-yl)amino)pyrido[3,4-d]pyrimidin-8-yl)cyclobutan-1-ol]"
–,< 200 nM,< 200 nM,< 200 nM,"Cc1cc2cnc(NC3CCN(S(=O)(=O)c4cnn(C)c4)CC3)nc2c(N2CC(F)(F)C3(CNC3)C2)n1 [Compound 89, 8-(8,8-difluoro-2,6-diazaspiro[3.4]octan-6-yl)-6-methyl-N-(1-((1-methyl-1H-pyrazol-4-yl)sulfonyl)piperidin-4-yl)pyrido[3,4-d]pyrimidin-2-amine]"
–,< 200 nM,< 200 nM,< 200 nM,"Cc1cc2cnc(NC3CCN(S(=O)(=O)C4CC4)CC3)nc2c(N2CC(F)(F)C3(CN(C)C3)C2)n1 [Compound 102, N-(1-(cyclopropylsulfonyl)piperidin-4-yl)-8-(8,8-difluoro-2-methyl-2,6-diazaspiro[3.4]octan-6-yl)-6-methylpyrido[3,4-d]pyrimidin-2-amine]"
< 200 nM,500 to 2000 nM,< 200 nM,200 to 500 nM,"Cc1cc2cnc(NC3CCN(S(C)(=O)=O)CC3)nc2c(N2CC3(CN(C)C[C@H]3F)C2)n1 [Compound 104, (S)-8-(8-fluoro-6-methyl-2,6-diazaspiro[3.4]octan-2-yl)-6-methyl-N-(1-(methylsulfonyl)piperidin-4-yl)pyrido[3,4-d]pyrimidin-2-amine]"

# Further lines, the compound ahead of its results:
Compound,IC50 [1],IC50 (CDK1/Cyclin B1),IC50 (CDK4/Cyclin D1),IC50 (CDK6/Cyclin D3)
"Cc1cc2cnc(Nc3ccc4c(c3)CN(C3CN(S(C)(=O)=O)C3)C4)nc2c(N2CC3(CN(C)C3)C2)n1 [Compound 29, 6-methyl-8-(6-methyl-2,6-diazaspiro[3.3]heptan-2-yl)-N-(2-(1-(methylsulfonyl)azetidin-3-yl)isoindolin-5-yl)pyrido[3,4-d]pyrimidin-2-amine]",200 to 500 nM,> 2000 nM,< 200 nM,–
"Cc1cc2cnc(Nc3ccc(N4CC5(CN(C)C5)C4)cc3)nc2c(N2CC3(C2)CS(=O)(=O)C3)n1 [Compound 30, 6-(6-methyl-2-((4-(6-methyl-2,6-diazaspiro[3.3]heptan-2-yl)phenyl)amino)pyrido[3,4-d]pyrimidin-8-yl)-2-thia-6-azaspiro[3.3]heptane 2,2-dioxide]",200 to 500 nM,> 2000 nM,200 to 500 nM,200 to 500 nM
"Cc1cc2cnc(Nc3cc4c(cc3F)CN(S(C)(=O)=O)C4)nc2c(N2CC3(CNC3)C2)n1 [Compound 37, N-(6-fluoro-2-(methylsulfonyl)isoindolin-5-yl)-6-methyl-8-(2,6-diazaspiro[3.3]heptan-2-yl) pyrido[3,4-d]pyrimidin-2-amine]",200 to 500 nM,> 2000 nM,> 2000 nM,> 2000 nM
"O=S(=O)(C1CC1)N1CCC(Nc2ncc3cc(C(F)F)nc(N4CC5(CCNC5)C4)c3n2)CC1 [Compound 46, 1-(cyclopropanesulfonyl)-N-(8-{2,6-diazaspiro[3.4]octan-2-yl}-6-(difluoromethyl)pyrido[3,4-d]pyrimidin-2-yl)piperidin-4-amine]",< 200 nM,< 200 nM,< 200 nM,< 200 nM
"Cc1cc2cnc(NC3CCN(S(C)(=O)=O)CC3)nc2c(N2CC(O)(C(F)F)C2)n1 [Compound 91, 3-(difluoromethyl)-1-(6-methyl-2-((1-(methylsulfonyl)piperidin-4-yl)amino)pyrido[3,4-d]pyrimidin-8-yl)azetidin-3-ol]",–,< 200 nM,< 200 nM,< 200 nM
"Cc1cc2cnc(NC3CCN(S(C)(=O)=O)CC3)nc2c(N2CC(F)(F)C3(CNC3)C2)n1 [Compound 92, 8-(8,8-difluoro-2,6-diazaspiro[3.4]octan-6-yl)-6-methyl-N-(1-(methylsulfonyl)piperidin-4-yl)pyrido[3,4-d]pyrimidin-2-amine]",–,< 200 nM,< 200 nM,< 200 nM
"CCS(=O)(=O)N1CCC(Nc2ncc3cc(C)nc(N4CC(F)(F)C5(CNC5)C4)c3n2)CC1 [Compound 95, 8-(8,8-difluoro-2,6-diazaspiro[3.4]octan-6-yl)-N-(1-(ethylsulfonyl)piperidin-4-yl)-6-methylpyrido[3,4-d]pyrimidin-2-amine]",–,< 200 nM,< 200 nM,< 200 nM
"Cc1cc2cnc(NC3CCN(S(C)(=O)=O)CC3)nc2c(N2CC3(CNCC3F)C2)n1 (stereo not shown) [Compound 98, 8-(8-fluoro-2,6-diazaspiro[3.4]octan-2-yl)-6-methyl-N-(1-(methylsulfonyl)piperidin-4-yl)pyrido[3,4-d]pyrimidin-2-amine]",–,200 to 500 nM,< 200 nM,200 to 500 nM
"Cc1cc2cnc(NC3CCN(S(C)(=O)=O)CC3)nc2c(N2CC3(CN(C)C[C@@H]3F)C2)n1 [Compound 103, (R)-8-(8-fluoro-6-methyl-2,6-diazaspiro[3.4]octan-2-yl)-6-methyl-N-(1-(methylsulfonyl)piperidin-4-yl)pyrido[3,4-d]pyrimidin-2-amine]",< 200 nM,500 to 2000 nM,< 200 nM,< 200 nM
